Data: patent publication US20210393677A1, “COMPOUNDS FOR MODULATION AND AS FUNCTIONAL REPLACEMENT OF ALPHAKETOGLUTARIC ACID (2OG)-DEPENDENT OXYGENASES” (priority 2018, published 2021)

What was measured:
HCT116 IDH1+/+ cells = experiment: 2-HG content by LC-MS/MS in HCT116 IDH1+/+ cells; type: cell-based, human; settings: ML309 10 μM, untreated 0.15
Protocol: Es is known that IDH1 mutations are connected with a modified IDH1 enzyme function that induces the excess production of neomorphous metabolite 2-hydroxyglutarate. In order to validate the increased frequency of 2-HG in HCT116 IDH1R132H/+ cells compared to HCT116 IDH1+/+ cells, the 2-HG content was analyzed by means of LC-MS/MS analysis (illustration 1). Intracellular 2-HG in IDH1R132H/+ cells was 56 times higher than in IDH1 wildtype cells (8.5 nmol/mg protein or 0.15 nmol/mg protein; 56 times higher; p<0.0001). Furthermore, the treatment with the IDH1 inhibitor ML309 (10 μM) led to a significant reduction of the oncometabolite 2-HG in the HCT116 IDH1R132H/+ cells to (0.3 nmol/mg protein) and to a lower degree of IDH1+/+ (0.04 nmol/mg protein) (Fig.). In contrast, DKA produced only minimum changes in the 2-HG concentrations in the mutated cells (5.9 nmol/mg protein). […] FIG. 10.
HCT116 (ATCC-Nr. CCL-247), a human colorectal carcinoma cell line, was acquired from the American Type Culture Collection (ATCC; https://www.atcc.org/). Human colon carcinoma cells HCT116 IDH1+/+ and HCT116 IDH1R132H/+ come from Horizon Discovery and were let us for test purposes. The cells were cultured in Dulbecco's Modified Eagle's Medium (DMEM) with 2 mM L-glutamine, supplemented with 10% fetal bovine serum (FBS), 45 IU/ml penicillin and 45 IU/ml streptomycin. […]

[1] = test system: TET enzymes in IDH1R132H/+ cells; experiment: activation of TET enzymes in IDH1R132H/+ cells (5-hmdC levels); type: cell-based, human; settings: IDH1R132H/+ cells (FIG. 11)
Protocol: Likewise, promotion of the secondary apoptosis occurs, which indicates the recovery of the cell function on a molecular level (cf. FIG. 11). The native 2-OG again enters into the normal cell metabolism and thus again inhibits the malignant derailment of the cell (secondary way of formation of 2-OG from glutamic acid is omitted).
Samples of genomic DNA (20 μg) were hydrolyzed with micrococcal nuclease from Staphylococcus aureus, bovine spleen phosphodiesterase, and bovine intestinal alkaline phosphatase (all from Sigma-Aldrich, Taufkirchen, Germany) to 2′-deoxynucleosides, as described, with modifications of the application. […] Then, DNA hydrolysates were centrifuged (5 min, 16,000×g), and 10 μL of the supernatants were used for the quantification of dC and 5-mdC stable marked references.
Compounds [15N2,13Cl]dC and 5-mdC-d3 (both from Toronto Research Chemicals, Toronto, Canada). […] Chromatographic conditions and settings of the ESI source were as described for the quantification of dC and 5-mdC [62]. […] The quantification of 5-hmdC with respect to the stable isotope-marked standard that were both eluted at 4.9 min from the LC column (the retention times of dC and 5-mdC were 4.7 or 6.0 min, respectively), was performed with the aid of the Multiple Reaction Monitoring (MRM) approach. […] For clear identification, further mass transitions were recorded. […]

TET enzyme = experiment: cell-free TET assay (co-substrate function); type: biochemical; settings: FIG. 16B

## Cc1ccccc1C(C(=O)NC1CCCC1)N(C(=O)Cn1cnc2ccccc21)c1cccc(F)c1 (stereo not drawn) [ML309, reference compound]
HCT116 IDH1+/+ cells
  intracellular 2-HG: 0.04 nmol/mg protein
[1]
  activation of the inhibited TET enzymes: does not activate

## O=C(O)C(=O)C(O)C(O)C(O)CO (stereo not drawn) [2-ketogulonic acid]
TET enzyme
  effect in the assay: dose-dependent effect
